# Results reported in patent US20240199647A1, “ANTI-VIRAL COMPOUNDS” (Aligos Therapeutics, Inc., priority 2022, published 2024).
# Read-outs that look alike come from different tables or passages of the source.
# Key:
# [1] = system: SARS-CoV-2 B.1.1.7 lineage; test: microbe, parasite or virus in culture; assay type: cell-based; settings: Severe acute respiratory syndrome coronavirus 2, Table C, SARS-CoV-2 B.1.1.7 in A549-dual_ACE2_TMPRSS2 cells, read-out: A549-dual_ACE2_TMPRSS2 (EC50)
# SARS-Cov-2 3CLpro = SARS-Cov-2 3CLpro (Severe acute respiratory syndrome coronavirus 2, UniProt P0DTD1); test: biochemical; settings: Table A, class symbols, read-out: SARS-Cov-2 (IC50)
# in vitro = settings: human
# [2] = Cytotoxicity in HeLa cells without addition of OC43 virus (in parallel); settings: human, HeLa cells, without OC43 virus
# [3] = system: human beta-coronavirus OC43; test: OC43 Coronavirus Assay in HeLa cells (antiviral, cytopathic effect, cell-titer-glo); assay type: cell-based; settings: Betacoronavirus 1, OC43, HeLa
# [4] = Table B, OC43 coronavirus in HeLa cells, class symbols, read-out: EC50
# [5] = Table B, OC43 coronavirus in HeLa cells, cells given as a bound, read-out: EC50
SMILES,EC50 ([1]; class symbols) [µM],IC50 (SARS-Cov-2 3CLpro) [µM],CC50 (in vitro) [µM],CC50 at 6 days [2] [µM],"EC50 [3, 4] [µM]","EC50 [3, 5] [µM]",EC50 ([1]; cells given as a bound) [µM],EC50 [3] [µM]
"C[C@H](NC(=O)C(F)(F)F)C(=O)N(C)[C@@H](COC(C)(C)C)C(=O)N1C[C@@]2(C[C@H]1C#N)Oc1cc(F)cc(F)c1NC2=O [Compound 115, (S)—N—((S)-3-(t-butoxy)-1-((2R,5'S)-5′-cyano-5,7-difluoro-3-oxo-3,4-dihydrospiro[benzo[b][1,4]oxazine-2,3′-pyrrolidin]-1′-yl)-1-oxopropan-2-yl)-N-methyl-2-(2,2,2-trifluoroacetamido)propenamide]",0.1 to 1,< 0.02,> 1,> 10,0.1 to 1,–,–,–
CN(C(=O)c1cc2c(F)cc(F)c(F)c2[nH]1)[C@@H](CC1CC1)C(=O)N1C[C@@]2(C[C@H]1C#N)Oc1cc(F)cc(F)c1NC2=O [Compound 74],0.1 to 1,0.02 to 0.2,> 1,> 10,–,> 10,–,–
CN(C(=O)[C@H](CC1CC1)NC(=O)C(F)(F)F)[C@@H](CC1CC1)C(=O)N1C[C@@]2(C[C@H]1C#N)Oc1ccccc1C1(CC1)NC2=O [Compound 113],–,0.02 to 0.2,> 1,> 10,0.1 to 1,–,> 1,–
"CN(C(=O)[C@H](CC1CC1)NC(=O)C(F)(F)F)[C@@H](CC1CC1)C(=O)N1C[C@@]2(C[C@H]1C#N)Oc1cc(F)cc(C#N)c1NC2=O (single isomer, unassigned) [Example 35]",0.1 to 1,0.02 to 0.2,> 1,> 10,1 to 10,–,–,–
CC(C)C[C@@H](C(=O)N1C[C@@]2(C[C@H]1C#N)CC(C)(C)NC2=O)N(C)C(=O)[C@H](C)NC(=O)C(F)(F)F [Compound 22],–,0.02 to 0.2,> 1,> 10,1 to 10,–,> 1,–
CN(C(=O)c1ncc(-c2ccccc2)[nH]1)[C@@H](CC1CC1)C(=O)N1C[C@@]2(C[C@H]1C#N)Oc1cccnc1NC2=O [Compound 208],0.1 to 1,0.02 to 0.2,> 1,> 10,0.1 to 1,–,–,–
CC(C)N1CC2(CC2)C[C@H]1C(=O)N(C)[C@@H](CC1CC1)C(=O)N1C[C@@]2(C[C@H]1C#N)Oc1cc(F)cc(F)c1NC2=O [Compound 116],0.1 to 1,< 0.02,> 1,> 10,0.1 to 1,–,–,–
CCN(C(=O)[C@H](C)NC(=O)C(F)(F)F)[C@@H](CC(C)C)C(=O)N1C[C@@]2(C[C@H]1C#N)Oc1cc(F)cc(F)c1NC2=O [Compound 106],0.1 to 1,< 0.02,> 1,> 10,0.1 to 1,–,–,–
CN(C(=O)[C@H]1CCN(C(=O)C(F)(F)F)C1)[C@@H](CC1CC1)C(=O)N1C[C@@]2(C[C@H]1C#N)Oc1cc(F)cc(F)c1NC2=O [Compound 129],0.1 to 1,0.2 to 2,> 1,> 10,–,–,–,> 10
"Cc1ccc2c(n1)O[C@@]1(C[C@@H](C#N)N(C(=O)[C@H](CC3CC3)N(C)C(=O)[C@H](CC3CC3)NC(=O)C(F)(F)F)C1)C(=O)N2 [Compound 227, (S)—N—((S)-1-((3R,5'S)-5′-cyano-6-methyl-2-oxo-1,2-dihydrospiro[pyrido[2,3-b][1,4]oxazine-3,3′-pyrrolidin]-1′-yl)-3-cyclopropyl-1-oxopropan-2-yl)-3-cyclopropyl-N-methyl-2-(2,2,2-trifluoroacetamido)propanamide]",0.1 to 1,< 0.02,> 1,> 10,< 0.1,–,–,–
CN(C(=O)[C@H](CC1CCC1)NC(=O)C(F)(F)F)[C@@H](CC1CC1)C(=O)N1C[C@@]2(C[C@H]1C#N)Oc1cc(F)cc(F)c1NC2=O [Compound 87],< 0.1,< 0.02,> 1,> 10,0.1 to 1,–,–,–
CN(C(=O)[C@H](CC1CC1)NC(=O)C(F)(F)F)[C@@H](CC1CC1)C(=O)N1C[C@@]2(C[C@H]1C#N)Oc1c(F)cc(F)cc1CNC2=O [Compound 199],0.1 to 1,< 0.02,> 1,> 10,< 0.1,–,–,–
CN(C(=O)[C@H](CC1CC1)NC(=O)C(F)(F)F)[C@@H](CC1CC1)C(=O)N1C[C@@]2(CC1C#N)Oc1c(C#N)cccc1NC2=O (stereo partly drawn) [Compound 124],0.1 to 1,< 0.02,> 1,> 10,< 0.1,–,–,–
CN(C(=O)[C@H](CC1CC1)NC(=O)C(F)(F)F)[C@@H](CC1CC1)C(=O)N1C[C@@]2(C[C@H]1C#N)Oc1cc(F)ccc1CNC2=O [Compound 142],< 0.1,< 0.02,> 1,> 10,< 0.1,–,–,–
C[C@H](NC(=O)C(F)(F)F)C(=O)N(C)[C@@H](CC1CC1)C(=O)N1C[C@@]2(C[C@H]1C#N)Oc1ncccc1NC2=O [Compound 209],0.1 to 1,< 0.02,> 1,> 10,< 0.1,–,–,–
CN(C(=O)[C@H](CC1CC1)NC(=O)C(F)(F)F)[C@@H](CC1CC1)C(=O)N1C[C@@]2(C[C@H]1C#N)Oc1c(F)ccc(F)c1NC2=O [Compound 57],< 0.1,< 0.02,> 1,> 10,< 0.1,–,–,–
CN(C(=O)[C@H](CC1CC1)NC(=O)C(F)(F)C(F)(F)F)[C@@H](CC1CC1)C(=O)N1C[C@@]2(C[C@H]1C#N)Oc1ncccc1NC2=O [Compound 184],< 0.1,< 0.02,> 1,> 10,< 0.1,–,–,–
"CC(C)C[C@@H](C(=O)N1C[C@]2(CCNC2=O)C[C@H]1C#N)N(C)C(=O)[C@H](C)NC(=O)C(F)(F)F [Compound 8, (S)—N—((S)-1-((3S,5S)-3-cyano-6-oxo-2,7-diazaspiro[4.4]nonan-2-yl)-4-methyl-1-oxopentan-2-yl)-N-methyl-2-(2,2,2-trifluoroacetamido)propanamide]",1 to 10,0.02 to 0.2,> 1,> 10,1 to 10,–,–,–
CN(C(=O)[C@H](CC1CCC1)NC(=O)C(F)(F)F)[C@@H](CC1CC1)C(=O)N1C[C@@]2(C[C@H]1C#N)Oc1ncccc1NC2=O [Compound 203],< 0.1,< 0.02,> 1,> 10,< 0.1,–,–,–
CC(C)[C@H](NC(=O)C(F)(F)F)C(=O)N(C)[C@@H](CC1CC1)C(=O)N1C[C@@]2(C[C@H]1C#N)Oc1cccnc1NC2=O [Compound 177],0.1 to 1,< 0.02,> 1,> 10,0.1 to 1,–,–,–
CN(C(=O)[C@H](CC1CC1)NC(=O)C(F)(F)F)[C@@H](CC1CC1)C(=O)N1C[C@@]2(C[C@H]1C#N)Oc1cnccc1NC2=O [Compound 73],0.1 to 1,0.02 to 0.2,> 1,> 10,0.1 to 1,–,–,–
"CC(C)C[C@@H](C(=O)N1C[C@]2(C[C@H]1C#N)C(=O)NCc1nccn12)N(C)C(=O)[C@H](C)NC(=O)C(F)(F)F [Example 46, (S)—N—((S)-1-((5R,5'S)-5′-cyano-6-oxo-7,8-dihydro-6H-spiro[imidazo[1,2-a]pyrazine-5,3′-pyrrolidin]-1′-yl)-4-methyl-1-oxopentan-2-yl)-N-methyl-2-(2,2,2-trifluoroacetamido)propanamide]",–,0.02 to 0.2,> 1,> 10,–,> 10,> 1,–
CN(C(=O)[C@H](CC1CC1)NC(=O)C(F)(F)F)[C@@H](CC1CC1)C(=O)N1C[C@@]2(C[C@H]1C#N)Oc1ccc(F)cc1CNC2=O [Compound 167],0.1 to 1,< 0.02,> 1,> 10,< 0.1,–,–,–
"CC(C)C[C@@H](C(=O)N1C[C@@]2(C[C@H]1C#N)OCc1ccccc1NC2=O)N(C)C(=O)c1cc2c(F)cc(F)cc2[nH]1 [Example 4, N—((S)-1-((3R,5'S)-5′-cyano-2-oxo-1,5-dihydro-2H-spiro[benzo[e][1,4]oxazepine-3,3′-pyrrolidin]-1′-yl)-4-methyl-1-oxopentan-2-yl)-4,6-difluoro-N-methyl-1H-indole-2-carboxamide]",1 to 10,0.02 to 0.2,> 1,> 10,–,> 1,–,–
CN(C(=O)[C@@H](NC(=O)C(F)(F)F)C1CC1)[C@@H](CC1CC1)C(=O)N1C[C@@]2(C[C@H]1C#N)Oc1cc(F)cc(F)c1NC2=O [Compound 194],< 0.1,< 0.02,> 1,> 10,< 0.1,–,–,–
CCOC[C@H](NC(=O)C(F)(F)F)C(=O)N(C)[C@@H](CC1CC1)C(=O)N1C[C@@]2(C[C@H]1C#N)Oc1cccnc1NC2=O [Compound 220],0.1 to 1,< 0.02,> 1,> 10,< 0.1,–,–,–
CN(C(=O)C1(NC(=O)C(F)(F)F)CCCCC1)[C@@H](CC1CC1)C(=O)N1C[C@@]2(C[C@H]1C#N)Oc1cccnc1NC2=O [Compound 173],–,0.2 to 2,> 1,> 10,1 to 10,–,> 1,–
